Organism: Rattus norvegicus
Assay: DrugMatrix - Regimen: Daily Repeat
Format: toxicity, organism-based, Sprague-Dawley
Set-up: regimen Daily Repeat, gender Male, age 6-8 weeks
Details: in vivo, iv, vehicle 100 % SALINE; for ABSOLUTE BASOPHIL / ABSOLUTE EOSINOPHIL / ABSOLUTE LYMPHOCYTE / ABSOLUTE MONOCYTE / ABSOLUTE SEGMENTED NEUTROPHIL / BASOPHIL / EOSINOPHIL / ERYTHROCYTE COUNT / HEMATOCRIT / HEMOGLOBIN / LEUKOCYTE COUNT / LYMPHOCYTE / MEAN CORPUSCULAR HEMOGLOBIN / MEAN CORPUSCULAR HEMOGLOBIN CONCENTRATION / MEAN CORPUSCULAR VOLUME / MONOCYTE / NEUTROPHIL / NUCLEATED RED BLOOD CELLS / PLATELET COUNT: tissue Blood; for ALANINE AMINOTRANSFERASE / ALBUMIN / ALKALINE PHOSPHATASE / ASPARTATE AMINOTRANSFERASE / BLOOD UREA NITROGEN / CARBON DIOXIDE / CHLORIDE / CHOLESTEROL / CREATINE PHOSPHOKINASE / CREATININE / GLUCOSE / LACTATE DEHYDROGENASE / LIPASE / PHOSPHORUS / POTASSIUM / SODIUM / TOTAL BILIRUBIN / TOTAL PROTEIN / URIC ACID: tissue Plasma
[1] = 0 mg/kg, 72 h, dose level Control, time 3 day
[2] = 0 mg/kg, 120 h, dose level Control, time 5 day
[3] = 23 mg/kg, 72 h, dose level High, time 3 day

COC(=O)C[C@](O)(CCC(C)(C)O)C(=O)O[C@@H]1C(OC)=C[C@]23CCCN2CCc2cc4c(cc2[C@H]13)OCO4 [HARRINGTONINE]
ABSOLUTE BASOPHIL [1]: 0 CELLS/uL
ABSOLUTE EOSINOPHIL [1]: 15.33 CELLS/uL
ABSOLUTE LYMPHOCYTE [1]: 9513.5 CELLS/uL
ABSOLUTE MONOCYTE [1]: 94.67 CELLS/uL
ABSOLUTE SEGMENTED NEUTROPHIL [1]: 709.83 CELLS/uL
BASOPHIL [1]: 0%
EOSINOPHIL [1]: 0.17%
ERYTHROCYTE COUNT [1]: 5.63 x10E6/uL
HEMATOCRIT [1]: 34.63%
HEMOGLOBIN [1]: 13.6 G/DL
LEUKOCYTE COUNT [1]: 10.33 x10E3/uL
LYMPHOCYTE [1]: 92%
MEAN CORPUSCULAR HEMOGLOBIN [1]: 24.17 pg
MEAN CORPUSCULAR HEMOGLOBIN CONCENTRATION [1]: 39.28 G/DL
MEAN CORPUSCULAR VOLUME [1]: 61.57 fL
MONOCYTE [1]: 0.83%
NEUTROPHIL [1]: 7%
NUCLEATED RED BLOOD CELLS [1]: 0 /100WBC
PLATELET COUNT [1]: 903.17 x10E3/uL
ALANINE AMINOTRANSFERASE [1]: 49.33 u/L
ALBUMIN [1]: 4.27 G/DL
ALKALINE PHOSPHATASE [1]: 400.83 u/L
ASPARTATE AMINOTRANSFERASE [1]: 77.5 u/L
BLOOD UREA NITROGEN [1]: 16.33 mg/dL
CARBON DIOXIDE [1]: 29.33 mmol/L
CHLORIDE [1]: 99.67 MEQ/L
CHOLESTEROL [1]: 66.67 mg/dL
CREATINE PHOSPHOKINASE [1]: 275.33 u/L
CREATININE [1]: 0.18 mg/dL
GLUCOSE [1]: 163.83 mg/dL
LACTATE DEHYDROGENASE [1]: 125.33 u/L
LIPASE [1]: 10 u/L
PHOSPHORUS [1]: 12.12 mg/dL
POTASSIUM [1]: 6.68 MEQ/L
SODIUM [1]: 144.02 MEQ/L
TOTAL BILIRUBIN [1]: 0.18 mg/dL
TOTAL PROTEIN [1]: 5.87 G/DL
URIC ACID [1]: 1.63 mg/dL
ABSOLUTE BASOPHIL [2]: 0 CELLS/uL
ABSOLUTE EOSINOPHIL [2]: 48.83 CELLS/uL
ABSOLUTE LYMPHOCYTE [2]: 14562 CELLS/uL
ABSOLUTE MONOCYTE [2]: 138.67 CELLS/uL
ABSOLUTE SEGMENTED NEUTROPHIL [2]: 1733.83 CELLS/uL
BASOPHIL [2]: 0%
EOSINOPHIL [2]: 0.33%
ERYTHROCYTE COUNT [2]: 5.89 x10E6/uL
HEMATOCRIT [2]: 36.7%
HEMOGLOBIN [2]: 14.42 G/DL
LEUKOCYTE COUNT [2]: 16.48 x10E3/uL
LYMPHOCYTE [2]: 88.83%
MEAN CORPUSCULAR HEMOGLOBIN [2]: 24.52 pg
MEAN CORPUSCULAR HEMOGLOBIN CONCENTRATION [2]: 39.3 G/DL
MEAN CORPUSCULAR VOLUME [2]: 62.37 fL
MONOCYTE [2]: 0.67%
NEUTROPHIL [2]: 10.17%
NUCLEATED RED BLOOD CELLS [2]: 0 /100WBC
PLATELET COUNT [2]: 1076.5 x10E3/uL
ALANINE AMINOTRANSFERASE [2]: 44.67 u/L
ALBUMIN [2]: 4.23 G/DL
ALKALINE PHOSPHATASE [2]: 357.33 u/L
ASPARTATE AMINOTRANSFERASE [2]: 84.83 u/L
BLOOD UREA NITROGEN [2]: 15.5 mg/dL
CARBON DIOXIDE [2]: 27 mmol/L
CHLORIDE [2]: 99.5 MEQ/L
CHOLESTEROL [2]: 63.67 mg/dL
CREATINE PHOSPHOKINASE [2]: 331.33 u/L
CREATININE [2]: 0.18 mg/dL
GLUCOSE [2]: 167.33 mg/dL
LACTATE DEHYDROGENASE [2]: 320.17 u/L
LIPASE [2]: 9.17 u/L
PHOSPHORUS [2]: 12.05 mg/dL
POTASSIUM [2]: 6.54 MEQ/L
SODIUM [2]: 143.02 MEQ/L
TOTAL BILIRUBIN [2]: 0.2 mg/dL
TOTAL PROTEIN [2]: 6.23 G/DL
URIC ACID [2]: 2.07 mg/dL
ABSOLUTE BASOPHIL [3]: 0 CELLS/uL
ABSOLUTE EOSINOPHIL [3]: 0 CELLS/uL
ABSOLUTE LYMPHOCYTE [3]: 9185.67 CELLS/uL
ABSOLUTE MONOCYTE [3]: 0 CELLS/uL
ABSOLUTE SEGMENTED NEUTROPHIL [3]: 547.67 CELLS/uL
BASOPHIL [3]: 0%
EOSINOPHIL [3]: 0%
ERYTHROCYTE COUNT [3]: 5.37 x10E6/uL
HEMATOCRIT [3]: 32.9%
HEMOGLOBIN [3]: 12.87 G/DL
LEUKOCYTE COUNT [3]: 9.73 x10E3/uL
LYMPHOCYTE [3]: 94.33%
MEAN CORPUSCULAR HEMOGLOBIN [3]: 23.97 pg
MEAN CORPUSCULAR HEMOGLOBIN CONCENTRATION [3]: 39.1 G/DL
MEAN CORPUSCULAR VOLUME [3]: 61.2 fL
MONOCYTE [3]: 0%
NEUTROPHIL [3]: 5.67%
NUCLEATED RED BLOOD CELLS [3]: 0 /100WBC
PLATELET COUNT [3]: 883 x10E3/uL
ALANINE AMINOTRANSFERASE [3]: 44.67 u/L
ALBUMIN [3]: 3.57 G/DL
ALKALINE PHOSPHATASE [3]: 237.67 u/L
ASPARTATE AMINOTRANSFERASE [3]: 76 u/L
BLOOD UREA NITROGEN [3]: 14.67 mg/dL
CARBON DIOXIDE [3]: 24.67 mmol/L
CHLORIDE [3]: 101 MEQ/L
CHOLESTEROL [3]: 58.33 mg/dL
CREATINE PHOSPHOKINASE [3]: 746.33 u/L
CREATININE [3]: 0.17 mg/dL
GLUCOSE [3]: 168.33 mg/dL
LACTATE DEHYDROGENASE [3]: 240.33 u/L
LIPASE [3]: 8 u/L
PHOSPHORUS [3]: 11.7 mg/dL
POTASSIUM [3]: 5.94 MEQ/L
SODIUM [3]: 141.53 MEQ/L
TOTAL BILIRUBIN [3]: 0.2 mg/dL
TOTAL PROTEIN [3]: 5.2 G/DL
URIC ACID [3]: 1.93 mg/dL

Reference: ChEMBL document CHEMBL3885881, “DrugMatrix”
